From US4170647A, “Method for the control of Arizona hinshawii in poultry with an alkylated BM123γ-type antibiotic” (American Cyanamid Company, priority 1978, dated 1979)

Test system: Arizona hinshawii
Test: In vitro activity against six strains of Arizona hinshawii (minimum inhibitory concentration, broth dilution)
Format: cell-based
Settings: trypticase soy broth, 24 hours at 37° C.
Description: Serial, two-fold dilutions of drugs are prepared in trypticase soy broth (TSB). To each tube containing 5 ml of broth is added 0.1 ml of a 10^-3 dilution of bacterial inoculum (six strains of Arizona hinshawii, originally isolated from clinical cases of Arizonosis of turkeys), adjusted prior to dilution to 44% transmission at 645 mμ. An inoculated broth, containing no drug is included as growth control for each strain tested. The minimum inhibitory conentration (MIC) is read as the highest dilution of drug showing no visble growth after 24 hours incubation at 37° C.

Measured: Minimum Inhibitory Concentration

Gentamicin
2 µg/mL: Isolate Number 1 | Isolate Number 2 | Isolate Number 3 | Isolate Number 4 | Isolate Number 5 | Isolate Number 6
